The source made the active and inactive calls. How the calls were made is not given here.
System: CCRIS mutagenicity, Ames/micronucleus/aberration tests
Assay: CCRIS mutagenicity studies
[1] = Test System: AMES SALMONELLA TYPHIMURIUM, Strain/Indicator: TA1538, Metabolic Activation: HAMSTER, LIVER, S-9, AROCLOR 1254, Method: STANDARD PLATE
[2] = Test System: MOUSE LYMPHOMA, Strain/Indicator: L5178Y (TK+/TK-), Metabolic Activation: NONE, Method: SUSPENSION/PLATE
[3] = Test System: AMES SALMONELLA TYPHIMURIUM, Strain/Indicator: TA98, Metabolic Activation: HAMSTER, LIVER, S-9, AROCLOR 1254, Method: STANDARD PLATE
[4] = Test System: AMES SALMONELLA TYPHIMURIUM, Strain/Indicator: TA98, Metabolic Activation: NONE, Method: STANDARD PLATE
[5] = Test System: AMES SALMONELLA TYPHIMURIUM, Strain/Indicator: TA98, Metabolic Activation: RAT, LIVER, S-9, AROCLOR 1254, Method: STANDARD PLATE
[6] = Test System: AMES SALMONELLA TYPHIMURIUM, Strain/Indicator: TA100, Metabolic Activation: NONE, Method: STANDARD PLATE
[7] = Test System: AMES SALMONELLA TYPHIMURIUM, Strain/Indicator: TA100, Metabolic Activation: RAT, LIVER, S-9, AROCLOR 1254, Method: STANDARD PLATE
[8] = Test System: AMES SALMONELLA TYPHIMURIUM, Strain/Indicator: TA1535, Metabolic Activation: NONE, Method: STANDARD PLATE
[9] = Test System: AMES SALMONELLA TYPHIMURIUM, Strain/Indicator: TA1535, Metabolic Activation: RAT, LIVER, S-9, AROCLOR 1254, Method: STANDARD PLATE
[10] = Test System: AMES SALMONELLA TYPHIMURIUM, Strain/Indicator: TA1537, Metabolic Activation: NONE, Method: STANDARD PLATE
[11] = Test System: AMES SALMONELLA TYPHIMURIUM, Strain/Indicator: TA1537, Metabolic Activation: RAT, LIVER, S-9, AROCLOR 1254, Method: STANDARD PLATE
[12] = Test System: AMES SALMONELLA TYPHIMURIUM, Strain/Indicator: TA1538, Metabolic Activation: NONE, Method: STANDARD PLATE
[13] = Test System: AMES SALMONELLA TYPHIMURIUM, Strain/Indicator: TA1538, Metabolic Activation: RAT, LIVER, S-9, AROCLOR 1254, Method: STANDARD PLATE
[14] = Test System: Mouse lymphoma, Strain/Indicator: L5178Y (tk+/tk-), Metabolic Activation: Rat, Liver, S-9, Aroclor 1254, Method: Suspension/plate
[15] = Test System: AMES SALMONELLA TYPHIMURIUM, Strain/Indicator: TA1535, Metabolic Activation: NONE, Method: PREINCUBATION
[16] = Test System: AMES SALMONELLA TYPHIMURIUM, Strain/Indicator: TA1535, Metabolic Activation: RAT, LIVER, S-9, AROCLOR 1254, Method: PREINCUBATION
[17] = Test System: AMES SALMONELLA TYPHIMURIUM, Strain/Indicator: TA1537, Metabolic Activation: NONE, Method: PREINCUBATION
[18] = Test System: AMES SALMONELLA TYPHIMURIUM, Strain/Indicator: TA1537, Metabolic Activation: RAT, LIVER, S-9, AROCLOR 1254, Method: PREINCUBATION
[19] = Test System: AMES SALMONELLA TYPHIMURIUM, Strain/Indicator: TA98, Metabolic Activation: RAT, LIVER, S-9, AROCLOR 1254, Method: PREINCUBATION
[20] = Test System: AMES SALMONELLA TYPHIMURIUM, Strain/Indicator: TA100, Metabolic Activation: RAT, LIVER, S-9, AROCLOR 1254, Method: PREINCUBATION

Row | Compound | mutagenic call [1] | mutagenic call [2] | mutagenic call [3] | mutagenic call [4] | mutagenic call [5] | mutagenic call [6] | mutagenic call [7] | mutagenic call [8] | mutagenic call [9] | mutagenic call [10] | mutagenic call [11] | mutagenic call [12] | mutagenic call [13] | mutagenic call [14] | mutagenic call [15] | mutagenic call [16] | mutagenic call [17] | mutagenic call [18] | mutagenic call [19] | mutagenic call [20] | further results
1 | Cc1cc(N)sn1 | active; positive | active; positive. reevaluation of results: inconclusive |  |  |  |  |  |  |  |  |  |  |  |  |  |  |  |  |  |  | mutagenic call (Test System: AMES SALMONELLA TYPHIMURIUM, Strain/Indicator: TA102, Metabolic Activation: RAT, LIVER, S-9, AROCLOR 1254, HAMSTER, LIVER, S-9, AROCLOR 1254, Method: PREINCUBATION): active; positive; mutagenic call (Test System: AMES SALMONELLA TYPHIMURIUM, Strain/Indicator: TA1538, Metabolic Activation: HAMSTER, LIVER, S-9, AROCLOR 1254 (5, 10%), Method: STANDARD PLATE): active; positive; mutagenic call (Test System: MOUSE LYMPHOMA, Strain/Indicator: L5178Y (TK+/TK-), Metabolic Activation: RAT, LIVER, S-9, AROCLOR 1254, Method: SUSPENSION/PLATE): active; positive. reevaluation of results: equivocal
2 | C=C(C)C(C)=O | inactive; negative |  | inactive; negative | inactive; negative | inactive; negative | inactive; negative | inactive; negative | inactive; negative | inactive; negative | inactive; negative | inactive; negative | inactive; negative | inactive; negative | active; positive |  |  |  |  |  |  | mutagenic call (Test System: AMES SALMONELLA TYPHIMURIUM, Strain/Indicator: TA100, Metabolic Activation: HAMSTER, LIVER, S-9, AROCLOR 1254, Method: STANDARD PLATE): inactive; negative; mutagenic call (Test System: AMES SALMONELLA TYPHIMURIUM, Strain/Indicator: TA1535, Metabolic Activation: HAMSTER, LIVER, S-9, AROCLOR 1254, Method: STANDARD PLATE): inactive; negative; mutagenic call (Test System: AMES SALMONELLA TYPHIMURIUM, Strain/Indicator: TA1537, Metabolic Activation: HAMSTER, LIVER, S-9, AROCLOR 1254, Method: STANDARD PLATE): inactive; negative; mutagenic call (Test System: Mouse lymphoma, Strain/Indicator: L5178Y (tk+/tk-), Metabolic Activation: None, Method: Suspension/plate): active; positive
3 | CC(=O)NNc1ccc(CO)cc1 |  |  |  |  |  |  |  |  |  |  |  |  |  |  | inactive; negative | inactive; negative | active; positive | inactive; negative |  |  | mutagenic call (Test System: AMES SALMONELLA TYPHIMURIUM, Strain/Indicator: TA104, Metabolic Activation: MUSHROOM TYROSINASE, Method: PREINCUBATION): active; positive; mutagenic call (Test System: AMES SALMONELLA TYPHIMURIUM, Strain/Indicator: TA104, Metabolic Activation: NONE, Method: PREINCUBATION): inactive; negative; mutagenic call (Test System: AMES SALMONELLA TYPHIMURIUM, Strain/Indicator: TA104, Metabolic Activation: RAT, LIVER, CYTOSOL AND MICROSOMES, AROCLOR 1254, NADPH, Method: PREINCUBATION): active; positive; mutagenic call (Test System: AMES SALMONELLA TYPHIMURIUM, Strain/Indicator: TA104, Metabolic Activation: RAT, LIVER, CYTOSOL AND MICROSOMES, AROCLOR 1254, Method: PREINCUBATION): inactive; negative; mutagenic call (Test System: AMES SALMONELLA TYPHIMURIUM, Strain/Indicator: TA104, Metabolic Activation: RAT, LIVER, CYTOSOL, AROCLOR 1254, Method: PREINCUBATION): inactive; negative; mutagenic call (Test System: AMES SALMONELLA TYPHIMURIUM, Strain/Indicator: TA104, Metabolic Activation: RAT, LIVER, MICROSOMES, AROCLOR 1254, NADPH, Method: PREINCUBATION): inactive; negative
4 | OCCNc1ccc(N=Nc2ccc(N(CCO)CCO)cc2)cc1 |  |  | inactive; negative | inactive; negative | inactive; negative | inactive; negative | inactive; negative | inactive; negative | inactive; negative | inactive; negative | inactive; negative | inactive; negative | inactive; negative |  |  |  |  |  | inactive; negative |  | 
5 | c1ccc2c(c1)cc1ccc3cccc4c5ccccc5c2c1c34 |  |  |  |  |  |  |  |  |  |  |  |  |  |  |  |  |  |  | active; positive | active; positive | mutagenic call (End Point: In vitro micronucleus, Test System: V79MZ Chinese hamster fibroblasts, Metabolic Activation: None): inactive; negative; mutagenic call (End Point: In vitro micronucleus, Test System: V79MZ-h1A1 Chinese hamster fibroblasts (expressing human CYP1A1), Metabolic Activation: None): active; positive; mutagenic call (End Point: In vitro micronucleus, Test System: V79MZ-h1B1 Chinese hamster fibroblasts (expressing human CYP1B1), Metabolic Activation: None): active; positive; mutagenic call (Test System: CHINESE HAMSTER V-79, Strain/Indicator: V-79 (HPRT)/6-THIOGUANINE, Metabolic Activation: HUMAN MAMMARY CARCINOMA MCF-7 CELLS): active; positive
6 | CC1CS1 (configuration not stated) |  | active; positive. reevaluation of results: positive |  |  |  |  |  |  |  |  |  |  |  | active; equivocal (previous evaluation positive) | inactive; negative | inactive; negative | inactive; negative | inactive; negative | inactive; negative | inactive; negative | mutagenic call (Test System: AMES SALMONELLA TYPHIMURIUM, Strain/Indicator: TA98, Metabolic Activation: HAMSTER, LIVER, S-9, AROCLOR 1254, Method: PREINCUBATION): inactive; negative; mutagenic call (Test System: AMES SALMONELLA TYPHIMURIUM, Strain/Indicator: TA98, Metabolic Activation: NONE, Method: PREINCUBATION): inactive; negative; mutagenic call (Test System: AMES SALMONELLA TYPHIMURIUM, Strain/Indicator: TA100, Metabolic Activation: HAMSTER, LIVER, S-9, AROCLOR 1254, Method: PREINCUBATION): inactive; negative; mutagenic call (Test System: AMES SALMONELLA TYPHIMURIUM, Strain/Indicator: TA100, Metabolic Activation: NONE, Method: PREINCUBATION): inactive; negative; mutagenic call (Test System: AMES SALMONELLA TYPHIMURIUM, Strain/Indicator: TA1535, Metabolic Activation: HAMSTER, LIVER, S-9, AROCLOR 1254, Method: PREINCUBATION): inactive; negative; mutagenic call (Test System: AMES SALMONELLA TYPHIMURIUM, Strain/Indicator: TA1537, Metabolic Activation: HAMSTER, LIVER, S-9, AROCLOR 1254, Method: PREINCUBATION): inactive; negative; mutagenic call (Test System: AMES SALMONELLA TYPHIMURIUM, Strain/Indicator: TA1538, Metabolic Activation: HAMSTER, LIVER, S-9, AROCLOR 1254, Method: PREINCUBATION): inactive; negative; mutagenic call (Test System: AMES SALMONELLA TYPHIMURIUM, Strain/Indicator: TA1538, Metabolic Activation: NONE, Method: PREINCUBATION): inactive; negative; mutagenic call (Test System: AMES SALMONELLA TYPHIMURIUM, Strain/Indicator: TA1538, Metabolic Activation: RAT, LIVER, S-9, AROCLOR 1254, Method: PREINCUBATION): inactive; negative

— PubChem BioAssay AID1259407 (Chemical Carcinogenesis Research Information System (CCRIS), 2018)
